{"source": "patent US6710071B2", "about": "“Difluoromethylene aromatic ethers as inhibitors of glycine transport” (Pfizer Inc, priority 2001, dated 2004)", "origin": "cited, not measured here", "system": "NMDA receptor", "conditions": "effect blocked by a specific NMDA-site antagonist and a glycine-site antagonist", "data": [{"smiles": "CN(CCC(Oc1ccc(-c2ccccc2)cc1)c1ccc(F)cc1)CC(=O)O", "note": "(stereo not shown) [NFPS]", "values": [{"measurement": "post synaptic current driven by the NMDA receptor", "result": "increased"}]}]}
